According to US10570179B2, “Substituted urea depsipeptide analogs as activators of the CLPP endopeptidase” (priority 2016, dated 2020):
≈ marks a conversion by molar mass, not a printed value. Numbered stars: 1 amine (or outer) side, 2 acyl side, 3 side chain; on linkers, the order of the positions; unused ones are H or OH. Bridge positions count the residues as written; N and C are the ends. Square brackets hold non-standard residues; d marks the D form. Peptide text beside a SMILES is read from it. * marks the point of attachment. ξ: configuration not given here. Phe(3-Me) = Cc1cccc(C[C@H](N)C(=O)O)c1; NH(4-Cl-2-F-phenyl) = Fc1cc(Cl)ccc1N*; Pro(4R-Me) = C[C@H]1CN[C@H](C(=O)O)C1; ξNMeThr = CNC(C(=O)O)[C@@H](C)O; aThr = C[C@H](O)[C@H](N)C(=O)O; CO = O=C([*:1])[*:2]

Assays:
Sa-ClpP = target: T1, Sa-ClpP (Staphylococcus aureus, UniProt Q2G036); test: ADEP displacement fluorescence polarization assay; format: binding, S. aureus; settings: displacement of FP probe ADEP 2591 from Sa-ClpP
T1 construct: made in house; host or cells: E. coli BL21 (DE3)
T1 sequence (Q2G036 whole entry): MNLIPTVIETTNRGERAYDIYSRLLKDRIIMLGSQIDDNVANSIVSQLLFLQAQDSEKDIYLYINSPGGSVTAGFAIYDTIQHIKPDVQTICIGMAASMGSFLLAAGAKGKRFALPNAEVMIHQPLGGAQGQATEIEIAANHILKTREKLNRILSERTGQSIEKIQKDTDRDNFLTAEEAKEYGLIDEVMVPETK
Experimental: A fluorescence polarization (FP) assay was used to determine the activity of the disclosed compounds in displacing an ADEP analogue from ClpP. Briefly, the assay was performed in black 384 well, flat bottom, low volume plates (Greiner Bio-One, Monroe, N.C., catalog #784076). 20 μL of a pre-equilibrated (1 hr, room temperature) master mix (15 μM Sa-ClpP, 2% DMSO (v/v) and 50 nM FP probe in TrisHCl, pH 8.0)) was pipetted into each well using a Well-Mate (Thermo Scientific, Waltham, Mass.). Sa-ClpP was prepared as described above for the ClpP activation assay. The FP probe was ADEP 2591 (structure shown above). The ADEP 2591 comprises a TAMRA fluorophore linked to a core based on modified ADEP 2378 via a short alkyl linker. Using pin transfer, approximately 0.4 μL (2% v/v DMSO) of each compound or control was added per well. After addition of compounds and controls, plates were allowed to incubate for an additional 120 minutes at room temperature. All assays were performed in triplicate. Polarization was monitored using an EnVision Multilabel reader (Perkin-Elmer, Waltham, Mass.) by exciting the FP probe at 530±25 nm, and monitoring fluorescence intensity of both parallel and perpendicular polarized light at 579±25 nm. Readout was in millipolarization units (mP).
Signal gain and G factors were determined in wells containing 200 μM ADEP 2378, which had been previously verified (data not shown) as containing completely unbound ADEP 2591. Data collected was normalized to values obtained from positive (200 μM ADEP 2378) or negative (DMSO) controls. Curves were fit with non-linear regression using the equation “log [inhibitor] vs. Response-variable slope (four parameters)-symmetrical” in the program Prism 6 (GraphPad Software, La Jolla, Calif. USA, www.graphpad.com). The structures for ADEP 2378 and ADEP 2591 are shown above. ADEP 2378 is (E)-N—((S)-1-(((2R,6S,8aS,14aS,20S,23aS)-2,6-dimethyl-5,8,14,19,23-pentaoxooctadecahydro-1H,5H,14H,19H-pyrido[2,1-i]dipyrrolo[2,1-c:2′,1′-1][1]oxa[4,7,10,13]tetraazacyclohexadecin-20-yl)amino)-1-oxo-3-phenylpropan-2-yl)pent-2-enamide. ADEP 2591 is 5-(3-(3-((6S,9S,11aS,17S,20aS)-6,10-dimethyl-5,8,11,16,20-pentaoxo-17-((S)-2-((E)-pent-2-enamido)-3-phenylpropanamido)hexadecahydro-1H,5H,16H-dipyrrolo[2,1-c:2′,1′-1][1]oxa[4,7,10,13]tetraazacyclohexadecin-9-yl)propyl)thioureido)-2-(6-(dimethylamino)-3-(dimethyliminio)-3H-xanthen-9-yl)benzoate.

S. aureus ΔClpP = test: Minimal inhibitory concentration, microbroth dilution; format: cell-based, Staphylococcus aureus; settings: MIC; ClpP inactivated
Outline: (§1)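 MIC is recorded by eye as the lowest drug concentration that stops bacterial growth. Compound is serially diluted twofold in broth, starting at 200 μM final, and bacteria are added at roughly 10^5 cfu/mL. Incubation runs overnight at 37 °C under aerobic conditions, per CLSI guidance.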

E. faecails = test: as above; format: cell-based; settings: Enterococcus faecalis; MIC; read-out: Minimal Inhibitory Concentrations (μM) E. faecails
Outline: as §1

MRSA NRS70 = test: as above; format: cell-based; settings: Staphylococcus aureus; MIC; read-out: Minimal Inhibitory Concentrations (μM) MRSA NRS70
Outline: as §1

S. aureus ATCC 29213 = test: as above; format: cell-based; settings: Staphylococcus aureus, ATCC29213; MIC; read-out: Minimal Inhibitory Concentrations (μM) S. aureus ATCC 29213
Outline: as §1

S. aureus USA 300 = test: as above; format: cell-based; settings: Staphylococcus aureus, USA300; MIC; read-out: Minimal Inhibitory Concentrations (μM) S. aureus USA 300
Outline: as §1

[1] = Microsomal metabolic stability; format: in vitro ADME, mouse; settings: CD-1, mouse, pH 7.4
Experimental: Compounds were initially prepared by dissolving them into DMSO at a final concentration of 10 mM. NADPH regenerating solutions A and B and mouse liver microsomes (CD-1) were obtained from BD Gentest (Woburn, Mass.). Ninety-six well deep well plates were obtained from MidWest Scientific Inc (Valley Park, Mo.).
Sample preparation for microsomal stability was modified from methods of Di, L., et al., Int J Pharm. 2005 Jun. 13; 297(1-2):110-9. A set of incubation times of 0, 15, 30, 60, 120, and 240 minutes were used. Mouse liver microsomal solutions were prepared by adding 58 μL of concentrated human or mouse liver microsomes (20 mg/mL protein concentration) to 1.756 mL of 0.1 M potassium phosphate buffer (pH 7.4) and 5 μL of 0.5 M EDTA to make a 0.6381 mg/mL (protein) microsomal solution. NADPH regenerating agent contained 113 μL of NADPH A, 23 μL of NADPH B, and 315 μL of 0.1 M potassium phosphate buffer (pH 7.4). The diluted test compound solutions (2 μL) were each added directly to a 1.79 mL of liver microsomal solution. This solution was mixed and 90 μL was transferred to 6 time points plates (each in triplicate wells). For the time 0 plate, 225 μL of cold acetonitrile with internal standard ([…] warfarin) was added to each well, followed by addition of NADPH regenerating agent (22.5 μL) and no incubation. For other five time points' plate, NADPH regenerating agent (22.5 μL) was added to each well to initiate the reaction. The plates were incubated at 37° C. for the required time, followed by quenching of the reaction by adding 225 μL of cold acetonitrile with internal standard (4 μg/ml warfarin). All of the plates were sealed and mixed well at 600 rpm for 10 minutes followed by centrifugation at 4000 rpm for 20 minutes. The supernatants (120 μL) were transferred to analytical plates for analysis by LCMS. LCMS conditions were described in the materials and instrumentation section above. The metabolic stability is evaluated via the half-life from least-squares fit of the multiple time points based on first-order kinetics.

| Structure (SMILES) | IC50 (Sa-ClpP) | Minimal Inhibitory Concentrations (μM) S. aureus ΔClpP (S. aureus ΔClpP) | MIC (E. faecails) | MIC (MRSA NRS70) | MIC (S. aureus ATCC 29213) | MIC (S. aureus USA 300) | Mouse [1] |
| --- | --- | --- | --- | --- | --- | --- | --- |
| Cc1cccc(C[C@H](NC(=O)Nc2ccc3c(c2)OCCO3)C(=O)N[C@H]2COC(=O)[C@@H]3C[C@@H](C)CN3C(=O)[C@H](C)NC(=O)[C@@H]3CCCCN3C(=O)[C@@H]3CCCN3C2=O)c1 [Compound 22, (S)-2-(3-(2,3-DIHYDROBENZO[B][1,4]DIOXIN-6-YL)UREIDO)-N-((2R,6S,8AS,14AS,20S,23AS)-2,6-DIMETHYL-5,8,14,19,23-PENTAOXOOCTADECAHYDRO-1H,5H,14H,19H-PYRIDO[2,1-I]DIPYRROLO[2,1-C:2′,1′-L][1]OXA[4,7,10,13]TETRAAZACYCLOHEXADECIN-20-YL)-3-(M-TOLYL)PROPANAMIDE] | 4.12 ± 0.29 µM | >20 µM | 1.25 µM (≈ 1.02 µg/mL) | 1.25 µM (≈ 1.02 µg/mL) | 5 µM (≈ 4.08 µg/mL) | 5 µM (≈ 4.08 µg/mL) | 4.48 ± 0.61 h |
| Cc1cccc(C[C@H](NC(=O)Nc2ccc(Cl)cc2F)C(=O)N[C@@H]2C(=O)N3CCC[C@H]3C(=O)N(C)C([C@@H](C)O)C(=O)N[C@@H](C)C(=O)N3C[C@H](C)C[C@H]3C(=O)O[C@H]2C)c1 (stereo partly drawn) [Compound 5] ({NH(4-Cl-2-F-phenyl)-CO}-[Phe(3-Me)][aThr]P[ξNMeThr]A[Pro(4R-Me)]; ester 2-C) | 4.4 ± 0.4 µM | >20 µM | 0.156 µM (≈ 0.129 µg/mL) | 0.078 µM (≈ 0.0646 µg/mL) | 0.078 µM (≈ 0.0646 µg/mL) | 0.078 µM (≈ 0.0646 µg/mL) | 1.02 ± 0.2 h |
| Cc1cccc(C[C@H](NC(=O)Nc2ccc(Cl)cc2F)C(=O)N[C@H]2COC(=O)[C@@H]3C[C@@H](C)CN3C(=O)[C@H](C)NC(=O)[C@@H]3CCCCN3C(=O)[C@@H]3C[C@@H](O)CN3C2=O)c1 [Compound 10] | 4.65 ± 0.2 µM | >20 µM | 0.313 µM (≈ 0.259 µg/mL) | 0.313 µM (≈ 0.259 µg/mL) | 0.313 µM (≈ 0.259 µg/mL) | 0.313 µM (≈ 0.259 µg/mL) | 0.7 ± 0.07 h |
